We go through six compounds from ChEMBL document CHEMBL1201862, “PubChem BioAssay data set” (2004).

Assay [1] deals with HEK293. Kind of assay: cells. The following applies: Homo sapiens. Format: functional, cell-based.
In assay [2] the target is T1, Zinc finger protein mex-5 (Caenorhabditis elegans, UniProt Q9XUB2).
T1 sequence (Q9XUB2 whole entry): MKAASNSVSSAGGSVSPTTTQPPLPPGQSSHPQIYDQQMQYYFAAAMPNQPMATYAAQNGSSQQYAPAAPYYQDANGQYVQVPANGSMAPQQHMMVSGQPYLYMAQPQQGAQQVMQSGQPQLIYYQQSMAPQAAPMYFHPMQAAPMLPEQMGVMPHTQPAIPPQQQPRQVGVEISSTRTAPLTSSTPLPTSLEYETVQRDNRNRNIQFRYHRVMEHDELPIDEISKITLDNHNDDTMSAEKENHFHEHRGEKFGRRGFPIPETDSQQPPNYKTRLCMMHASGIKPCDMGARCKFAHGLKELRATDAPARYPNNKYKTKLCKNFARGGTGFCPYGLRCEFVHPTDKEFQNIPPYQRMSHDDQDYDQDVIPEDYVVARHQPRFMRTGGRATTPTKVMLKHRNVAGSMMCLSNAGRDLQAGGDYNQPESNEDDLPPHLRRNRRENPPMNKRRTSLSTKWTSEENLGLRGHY
Briefly: MEX-5/TCR-2 RNA interaction inhibitors, dose response, biochemical, C. elegans, fluorescence polarization (AID 1960).

Assay [3] concerns the target T2, RNA-binding protein pos-1 (Caenorhabditis elegans, UniProt G5EF15).
T2 sequence (G5EF15 whole entry): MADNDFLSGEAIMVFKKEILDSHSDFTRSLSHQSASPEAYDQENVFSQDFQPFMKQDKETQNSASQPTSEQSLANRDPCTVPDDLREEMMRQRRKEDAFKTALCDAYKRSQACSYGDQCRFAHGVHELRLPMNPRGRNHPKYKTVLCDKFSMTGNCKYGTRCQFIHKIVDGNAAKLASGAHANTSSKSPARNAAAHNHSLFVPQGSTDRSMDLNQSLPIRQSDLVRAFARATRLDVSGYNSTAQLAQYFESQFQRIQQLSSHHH
Kind of assay: inhibitors of POS-1/mex-3 RNA binding, dose response, biochemical, fluorescence polarization (AID 1964).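 Note: purified POS-1 fused to maltose binding protein made in E. coli; potency of compounds blocking POS-1 binding to fluorescent RNA.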

Assay [4] has as its target T3, Nuclear receptor subfamily 0 group B member 1 (Homo sapiens, UniProt P51843).
T3 sequence (P51843 whole entry): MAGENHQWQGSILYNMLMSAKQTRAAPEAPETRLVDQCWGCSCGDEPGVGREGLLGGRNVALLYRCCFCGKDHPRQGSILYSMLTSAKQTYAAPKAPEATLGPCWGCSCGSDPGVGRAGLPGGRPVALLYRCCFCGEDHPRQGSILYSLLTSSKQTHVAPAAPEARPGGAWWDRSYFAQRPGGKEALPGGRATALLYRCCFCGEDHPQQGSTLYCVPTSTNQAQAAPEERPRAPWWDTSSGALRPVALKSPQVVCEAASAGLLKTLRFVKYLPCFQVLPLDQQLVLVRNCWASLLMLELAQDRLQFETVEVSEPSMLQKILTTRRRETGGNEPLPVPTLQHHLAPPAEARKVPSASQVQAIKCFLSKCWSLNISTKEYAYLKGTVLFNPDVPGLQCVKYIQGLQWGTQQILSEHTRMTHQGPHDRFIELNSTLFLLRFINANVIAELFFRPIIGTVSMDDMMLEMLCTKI
Briefly: Luminescence-based cell-based high throughput dose response assay for inhibitors of the orphan nuclear receptor subfamily 0, group B, member 1 (DAX1; NR0B1). [Related pubchem assays (depositor defined):AID504766, AID504790]. It is filed as functional.

Assay [5] in a line: C. albicans growth with fluconazole, confirmation, fluorescence, retest (AID 2467). It is filed as functional, cell-based.
Assay [6] in a line: NIH-3T3 fibroblast cytotoxicity, dose response, cytotoxicity control, cell-based, fluorescence, Alamar Blue, secondary assay (AID 2327).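 Note: NIH-3T3 mouse fibroblasts cultured with fluconazole at 8 µg/mL.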 It is filed as functional.
A further assay deals with Beta-galactosidase (Escherichia coli, UniProt Q8VNN2). Briefly: PubChem AID 485352. It is filed as functional.
Chain of Beta-galactosidase (Q8VNN2 whole entry): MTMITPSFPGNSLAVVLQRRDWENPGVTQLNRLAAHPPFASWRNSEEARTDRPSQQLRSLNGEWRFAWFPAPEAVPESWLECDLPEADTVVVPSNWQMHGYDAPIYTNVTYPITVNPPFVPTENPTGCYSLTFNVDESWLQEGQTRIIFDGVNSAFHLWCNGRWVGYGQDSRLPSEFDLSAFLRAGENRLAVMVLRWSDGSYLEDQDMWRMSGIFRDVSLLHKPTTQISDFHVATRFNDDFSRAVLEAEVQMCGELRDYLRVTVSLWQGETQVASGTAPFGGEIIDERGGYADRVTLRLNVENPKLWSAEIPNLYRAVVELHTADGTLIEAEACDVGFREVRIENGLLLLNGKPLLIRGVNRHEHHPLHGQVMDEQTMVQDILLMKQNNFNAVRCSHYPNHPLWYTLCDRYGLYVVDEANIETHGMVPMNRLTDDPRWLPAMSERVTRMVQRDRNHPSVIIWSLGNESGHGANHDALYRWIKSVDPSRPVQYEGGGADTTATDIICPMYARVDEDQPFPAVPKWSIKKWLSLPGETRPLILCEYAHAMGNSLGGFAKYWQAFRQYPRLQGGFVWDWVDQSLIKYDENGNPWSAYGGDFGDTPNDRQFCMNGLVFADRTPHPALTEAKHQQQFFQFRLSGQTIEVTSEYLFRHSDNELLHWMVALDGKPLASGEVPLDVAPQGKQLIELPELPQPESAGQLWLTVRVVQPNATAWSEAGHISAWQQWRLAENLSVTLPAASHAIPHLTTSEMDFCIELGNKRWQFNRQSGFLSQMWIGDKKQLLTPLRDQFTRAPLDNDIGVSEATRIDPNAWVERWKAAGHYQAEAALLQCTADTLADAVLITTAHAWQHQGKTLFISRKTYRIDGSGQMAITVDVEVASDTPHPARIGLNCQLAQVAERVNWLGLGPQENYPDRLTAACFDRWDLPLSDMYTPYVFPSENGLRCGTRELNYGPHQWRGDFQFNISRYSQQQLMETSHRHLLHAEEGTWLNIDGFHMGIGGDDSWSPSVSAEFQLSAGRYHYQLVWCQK
The target in assay [7] is T4, Serine/threonine-protein phosphatase (Candida dubliniensis (strain CD36 / CBS 7987 / NCPF 3949 / NRRLY-17841) (Yeast), UniProt B9W6M3).
T4 sequence (B9W6M3 whole entry): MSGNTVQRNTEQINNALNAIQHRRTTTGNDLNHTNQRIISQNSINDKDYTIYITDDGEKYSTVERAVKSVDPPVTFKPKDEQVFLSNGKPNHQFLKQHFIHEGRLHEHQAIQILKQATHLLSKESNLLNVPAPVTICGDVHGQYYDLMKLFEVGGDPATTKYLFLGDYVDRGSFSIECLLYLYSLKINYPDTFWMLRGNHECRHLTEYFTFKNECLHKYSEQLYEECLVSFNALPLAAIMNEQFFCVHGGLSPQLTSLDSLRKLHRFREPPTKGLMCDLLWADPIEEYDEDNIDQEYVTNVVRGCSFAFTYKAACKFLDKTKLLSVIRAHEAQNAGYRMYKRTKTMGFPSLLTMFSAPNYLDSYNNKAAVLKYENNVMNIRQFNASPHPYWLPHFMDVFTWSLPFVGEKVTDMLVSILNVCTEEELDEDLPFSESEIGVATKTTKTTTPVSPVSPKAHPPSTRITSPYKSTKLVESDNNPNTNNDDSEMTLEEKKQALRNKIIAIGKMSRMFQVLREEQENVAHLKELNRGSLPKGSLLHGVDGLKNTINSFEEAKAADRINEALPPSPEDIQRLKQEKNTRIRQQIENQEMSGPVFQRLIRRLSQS
Briefly: calcineurin pathway inhibitors in yeast reporter, dose response, S. cerevisiae, CDRE-lacZ, luminescence, secondary (AID 2388).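 Note: yeast reporter cells carrying a calcineurin-responsive lacZ construct stimulated with calcium chloride; luminescent beta-galactosidase reporter signal in whole cells rather than isolated phosphatase activity; potency for inhibition where a drop in reporter signal means calcineurin blockade.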 Format: functional, cell-based.

In assay [8] the target is T5, Type-1 angiotensin II receptor (Homo sapiens, UniProt P30556).
T5 sequence (P30556 whole entry): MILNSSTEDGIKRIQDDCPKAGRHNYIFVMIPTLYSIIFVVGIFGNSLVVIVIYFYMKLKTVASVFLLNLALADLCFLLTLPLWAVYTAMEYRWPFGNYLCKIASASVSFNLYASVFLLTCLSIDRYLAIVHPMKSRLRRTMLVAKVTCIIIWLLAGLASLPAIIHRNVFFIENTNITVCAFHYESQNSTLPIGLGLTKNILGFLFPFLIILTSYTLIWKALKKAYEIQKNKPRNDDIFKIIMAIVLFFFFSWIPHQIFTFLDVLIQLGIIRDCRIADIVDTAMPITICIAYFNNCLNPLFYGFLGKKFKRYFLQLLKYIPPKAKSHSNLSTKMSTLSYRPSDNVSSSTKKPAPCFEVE
Kind of assay: AT1 receptor antagonists, dose response, selectivity assay for APJ receptor antagonist project, cell-based, uHTS hits (AID 463214).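 Note: antagonist potency against angiotensin II stimulated AT1 response.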 Format: functional.

Assay [9] has as its target ATP-dependent molecular chaperone HSP82 (Candida albicans (strain WO-1) (Yeast), UniProt C4YTQ8). Briefly: loss of DOC-induced GRE-beta-galactosidase reporter signal, dose response, Hsp90 inhibitor project, S. cerevisiae, luminescence (AID 2400).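 Note: beta-galactosidase luminescence from glucocorticoid response element reporter as proxy for Hsp90 function; inhibitor potency where signal loss means Hsp90 inhibition.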 It is filed as functional, cell-based.
The target in assay [10] is T6, Oxysterols receptor LXR-beta (Homo sapiens, UniProt P55055).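 Note: Cell-based luminescence dose-response assay of agonist activity at LXR, run as a confirmatory counterscreen to a daf-12 agonist screen; HEK293 cells with Gal4-LXR fusion and GAL4-driven luciferase reporter; agonist potency from rising luciferase signal of a Gal4-LXR reporter.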
T6 sequence (P55055 whole entry): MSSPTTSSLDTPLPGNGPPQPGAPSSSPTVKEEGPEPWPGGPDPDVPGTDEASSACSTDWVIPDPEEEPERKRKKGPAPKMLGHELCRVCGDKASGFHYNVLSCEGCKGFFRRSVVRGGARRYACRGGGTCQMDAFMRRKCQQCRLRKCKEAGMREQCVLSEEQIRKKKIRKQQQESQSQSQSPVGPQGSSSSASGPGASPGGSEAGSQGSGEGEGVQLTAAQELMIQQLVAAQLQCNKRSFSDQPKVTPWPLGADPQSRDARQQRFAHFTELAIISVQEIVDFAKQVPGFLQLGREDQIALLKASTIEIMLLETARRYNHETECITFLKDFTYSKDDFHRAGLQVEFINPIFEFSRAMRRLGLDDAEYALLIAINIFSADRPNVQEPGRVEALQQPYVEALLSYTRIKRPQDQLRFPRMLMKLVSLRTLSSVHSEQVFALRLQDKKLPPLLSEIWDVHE
Format: functional, cell-based.

For assay [11], the target named is T7, Nucleotide-binding oligomerization domain-containing protein 2 (Homo sapiens, UniProt Q9HC29). Briefly: NOD2 signaling inhibitors, cell-based, luminescence, uHTS, HEK293 (AID 1566). Format: functional.
T7 sequence (Q9HC29 whole entry, the tested form may be a part): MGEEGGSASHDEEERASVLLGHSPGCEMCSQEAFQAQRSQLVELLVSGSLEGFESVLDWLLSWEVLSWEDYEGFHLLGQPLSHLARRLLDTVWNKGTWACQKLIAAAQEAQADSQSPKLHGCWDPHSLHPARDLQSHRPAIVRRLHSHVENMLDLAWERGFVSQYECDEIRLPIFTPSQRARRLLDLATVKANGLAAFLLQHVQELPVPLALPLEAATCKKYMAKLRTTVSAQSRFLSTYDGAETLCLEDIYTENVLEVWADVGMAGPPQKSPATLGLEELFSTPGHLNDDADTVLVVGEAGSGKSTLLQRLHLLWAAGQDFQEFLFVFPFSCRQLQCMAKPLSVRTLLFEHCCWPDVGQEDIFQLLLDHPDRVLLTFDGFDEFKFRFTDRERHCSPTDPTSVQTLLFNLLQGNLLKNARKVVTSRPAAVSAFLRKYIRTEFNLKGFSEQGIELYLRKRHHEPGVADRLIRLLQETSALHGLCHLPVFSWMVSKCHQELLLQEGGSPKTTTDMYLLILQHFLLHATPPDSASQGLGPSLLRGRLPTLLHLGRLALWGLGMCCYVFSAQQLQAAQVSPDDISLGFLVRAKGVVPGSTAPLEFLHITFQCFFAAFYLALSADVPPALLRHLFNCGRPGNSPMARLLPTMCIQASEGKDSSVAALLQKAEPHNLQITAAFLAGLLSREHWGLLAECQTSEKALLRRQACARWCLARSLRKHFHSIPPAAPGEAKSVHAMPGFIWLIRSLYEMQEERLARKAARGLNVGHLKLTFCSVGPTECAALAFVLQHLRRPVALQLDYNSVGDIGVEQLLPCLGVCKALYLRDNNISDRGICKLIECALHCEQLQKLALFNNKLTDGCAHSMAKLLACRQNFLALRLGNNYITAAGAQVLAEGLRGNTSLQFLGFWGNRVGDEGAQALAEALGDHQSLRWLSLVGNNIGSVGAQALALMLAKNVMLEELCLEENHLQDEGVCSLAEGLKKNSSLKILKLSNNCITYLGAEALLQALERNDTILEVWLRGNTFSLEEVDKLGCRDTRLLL
For assay [12], the target named is T7, Nucleotide-binding oligomerization domain-containing protein 2. Kind of assay: PubChem AID 2334. Format: functional.
The next assay has as its target Tumor necrosis factor (Homo sapiens, UniProt P01375). Kind of assay: TNFa-triggered NF-kB activation inhibitors, SAR follow-up, cell-based, revised (AID 2337). Format: functional.
Assay [13] addresses T8, Nucleotide-binding oligomerization domain-containing protein 1 (Homo sapiens, UniProt Q9Y239).
T8 sequence (Q9Y239 whole entry): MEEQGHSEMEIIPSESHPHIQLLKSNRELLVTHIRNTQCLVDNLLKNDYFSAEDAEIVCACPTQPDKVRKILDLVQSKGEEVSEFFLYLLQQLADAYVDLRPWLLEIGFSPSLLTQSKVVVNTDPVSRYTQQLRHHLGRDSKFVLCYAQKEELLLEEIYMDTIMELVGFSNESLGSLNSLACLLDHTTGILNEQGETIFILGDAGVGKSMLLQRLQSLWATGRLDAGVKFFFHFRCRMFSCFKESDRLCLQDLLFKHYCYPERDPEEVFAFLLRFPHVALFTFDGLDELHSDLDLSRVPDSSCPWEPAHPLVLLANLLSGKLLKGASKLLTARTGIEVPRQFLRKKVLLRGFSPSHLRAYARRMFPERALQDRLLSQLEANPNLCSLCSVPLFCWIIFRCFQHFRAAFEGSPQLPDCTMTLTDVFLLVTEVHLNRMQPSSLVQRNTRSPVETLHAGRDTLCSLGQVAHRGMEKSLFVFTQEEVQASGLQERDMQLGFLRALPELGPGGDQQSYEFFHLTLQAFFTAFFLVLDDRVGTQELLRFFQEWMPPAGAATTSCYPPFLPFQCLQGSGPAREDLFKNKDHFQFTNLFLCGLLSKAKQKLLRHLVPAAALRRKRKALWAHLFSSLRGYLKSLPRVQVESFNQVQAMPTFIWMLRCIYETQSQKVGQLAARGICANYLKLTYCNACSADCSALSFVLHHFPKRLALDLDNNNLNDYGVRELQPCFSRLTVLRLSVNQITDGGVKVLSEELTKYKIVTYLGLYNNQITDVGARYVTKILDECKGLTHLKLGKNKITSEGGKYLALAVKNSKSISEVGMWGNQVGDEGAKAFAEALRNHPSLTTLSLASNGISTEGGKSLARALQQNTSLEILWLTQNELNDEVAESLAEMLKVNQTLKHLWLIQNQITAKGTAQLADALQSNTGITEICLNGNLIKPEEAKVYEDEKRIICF
Kind of assay: NOD1 signaling inhibitors, SAR follow-up, revised (AID 2333). It is filed as functional.

The next assay deals with Jurkat. Briefly: SAR Analysis of small molecule inhibitors of […] specific antigen receptor-induced NF-kB activation in a Jurkat cell line using a luminescence assay - Set 3. [Related pubchem assays (depositor defined):AID435022, AID435025, AID465]. Format: functional, cell-based. The following applies: Homo sapiens.
Assay [14] relates to HEK293. Kind of assay: cytotoxicity in HEK293T NF-kB-Luc cells, SAR follow-up, cytotoxicity control for NF-kB activator project, cell-based, resazurin fluorescence (AID 493251). It is filed as functional. The following applies: Homo sapiens.
Assay [15] has as its system HEK293. Kind of assay: SAR Analysis of small molecule inhibitors of B-cell specific antigen receptor-induced NF-kB activation in a HEK-293T cell line using a luminescence assay - Set 2. [Related pubchem assays (depositor defined):AID435022, AID435025, AID489021]. It is filed as functional, cell-based. The following applies: Homo sapiens.

Each structure is given as a SMILES string. The source made the active and inactive calls.

Chain of ATP-dependent molecular chaperone HSP82 (C4YTQ8 whole entry, the tested form may be a part): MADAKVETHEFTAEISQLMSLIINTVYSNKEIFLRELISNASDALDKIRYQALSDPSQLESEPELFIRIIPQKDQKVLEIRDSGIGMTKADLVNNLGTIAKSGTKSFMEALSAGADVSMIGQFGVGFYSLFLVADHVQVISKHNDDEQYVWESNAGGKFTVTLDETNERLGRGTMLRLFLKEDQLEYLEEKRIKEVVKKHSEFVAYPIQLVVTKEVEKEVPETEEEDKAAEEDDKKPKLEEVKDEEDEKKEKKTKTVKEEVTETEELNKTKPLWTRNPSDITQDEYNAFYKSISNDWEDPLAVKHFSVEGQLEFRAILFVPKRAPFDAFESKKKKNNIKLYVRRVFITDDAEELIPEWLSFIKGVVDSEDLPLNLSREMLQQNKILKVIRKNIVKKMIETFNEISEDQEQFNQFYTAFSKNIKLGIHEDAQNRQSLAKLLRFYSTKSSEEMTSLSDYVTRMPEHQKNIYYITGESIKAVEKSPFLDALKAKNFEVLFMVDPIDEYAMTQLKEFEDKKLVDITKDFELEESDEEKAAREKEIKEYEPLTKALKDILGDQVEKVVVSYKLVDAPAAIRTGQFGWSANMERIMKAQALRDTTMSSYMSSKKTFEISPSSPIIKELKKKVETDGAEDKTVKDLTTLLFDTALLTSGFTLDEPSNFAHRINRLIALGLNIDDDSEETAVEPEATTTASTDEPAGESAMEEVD
Chain of Tumor necrosis factor (P01375 whole entry, the tested form may be a part): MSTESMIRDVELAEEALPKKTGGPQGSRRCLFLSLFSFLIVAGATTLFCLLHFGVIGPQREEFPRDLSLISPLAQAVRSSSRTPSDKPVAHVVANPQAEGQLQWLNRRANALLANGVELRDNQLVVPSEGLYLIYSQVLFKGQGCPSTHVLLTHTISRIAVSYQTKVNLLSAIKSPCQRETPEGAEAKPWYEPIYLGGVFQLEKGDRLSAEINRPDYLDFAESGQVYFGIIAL

With `Fc1ccc(-c2nc3c(Cl)cc(C(F)(F)F)cn3c2Cl)cc1`, the IC50 (in the assay on HEK293 [1]; in assay [4]) was > 67.6 µM (inactive) each time. Also, the results for the EC50 in assay [2] and in [3] were 37.1 µM (active) and 41.6 µM (active), respectively.

Take `CCC(C)c1ccc(O)c(NC(=S)NC(=O)c2cccnc2)c1` (stereo unspecified): the EC50 was 0.632 µM (active) in assay [5]; > 150 µM (inactive) in [6]; > 40 µM (inactive) on Beta-galactosidase; > 180 µM (inactive) in assay [7]; 48.9 µM (active) in assay [9]. Besides, in [8], the IC50 is 14 µM (active).

On to `Cc1ccc(-c2cc(-c3ccc(F)cc3)[nH]n2)c(O)c1`, for which the EC50 (in “cells”; in [10]) was > 67.5 µM (inactive) in each case. Besides, the IC50 (with HEK293 [1]; in assay [4]) was > 67.5 µM (inactive) in each case.

With `Fc1ccc(NC(=S)Nc2nccs2)cc1`, the EC50 in assay [11] was > 20 µM (inactive); at Beta-galactosidase, > 40 µM (inactive). For the same compound, the IC50 in [12] was > 20 µM (inactive); at Tumor necrosis factor, > 20 µM (inactive); in [13], > 20 µM (inactive); in assay [8] it was 25.2 µM (not active).

In the case of `CC(C)(C)c1ccc(-c2noc(CCC(=O)Nc3cccc([N+](=O)[O-])c3)n2)cc1`, the IC50 is 60.7 µM (inactive) in the assay on Jurkat, 22.1 µM (inactive) in the assay on HEK293 [14] and 3.73 µM (active) in the assay with HEK293 [15].

For `CCOc1ccc(-c2nc(CSCC(=O)NCCc3ccc(C)cc3)c(C)o2)cc1`, the IC50 in the assay on Jurkat is 49.8 µM (inactive); with HEK293 [14], > 80 µM (inactive); in the assay on HEK293 [15] it was 40.2 µM (inactive).
